Source: US20230339891A1, “URACIL DERIVATIVES AS MER-AXL INHIBITORS” (BRISTOL-MYERS SQUIBB COMPANY, priority 2018, published 2023)

Assays:
GST-MERTK 578-872 = GST-MERTK 578-872 (Homo sapiens (Human), UniProt Q12866); assay: MERTK kinase homogeneous time resolved fluorescence (HTRF) binding assay; conditions: 1 nM kinase, fluorescein-labeled kinase tracer at Kd, 60 minutes at room temperature; read-out: Mer HTRF IC50
Outline: (§1)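 HTRF binding read-out after 60 min at room temperature, expressed as the 520/495 nm (fluorescein/terbium) ratio. Inhibition normalized to no-protein (100%) and vehicle (0%) controls. IC50 from 11-point dose-response; compounds from 10 mM DMSO stocks.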

HIS-AXL 473-End = HIS-AXL 473-End (Homo sapiens (Human), UniProt P30530); assay: AXL kinase homogeneous time resolved fluorescence (HTRF) binding assay; conditions: 1 nM kinase, fluorescein-labeled kinase tracer at Kd, 60 minutes at room temperature
HIS-AXL 473-End, sequence (P30530 473-894): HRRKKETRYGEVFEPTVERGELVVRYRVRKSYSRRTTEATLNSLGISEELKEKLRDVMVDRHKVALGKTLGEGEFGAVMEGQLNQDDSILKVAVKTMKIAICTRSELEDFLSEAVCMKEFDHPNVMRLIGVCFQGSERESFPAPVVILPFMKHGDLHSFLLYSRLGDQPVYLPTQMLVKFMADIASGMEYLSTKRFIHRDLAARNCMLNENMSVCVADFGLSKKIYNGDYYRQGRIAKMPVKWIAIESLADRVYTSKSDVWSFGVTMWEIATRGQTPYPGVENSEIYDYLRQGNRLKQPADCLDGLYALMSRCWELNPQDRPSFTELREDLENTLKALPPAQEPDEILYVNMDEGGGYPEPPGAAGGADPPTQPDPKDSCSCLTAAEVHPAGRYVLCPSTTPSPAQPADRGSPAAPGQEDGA
Outline: as §1

GST-MERTK 578-872, sequence (Q12866 578-872): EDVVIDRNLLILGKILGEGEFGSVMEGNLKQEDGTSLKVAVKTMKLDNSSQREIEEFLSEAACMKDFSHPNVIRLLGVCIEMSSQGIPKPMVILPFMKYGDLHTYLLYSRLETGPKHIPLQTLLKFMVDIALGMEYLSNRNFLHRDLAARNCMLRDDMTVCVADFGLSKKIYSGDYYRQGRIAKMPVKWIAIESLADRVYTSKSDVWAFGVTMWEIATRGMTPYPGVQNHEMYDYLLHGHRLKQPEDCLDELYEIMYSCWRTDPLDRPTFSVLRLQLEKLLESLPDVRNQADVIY

Structure (SMILES)	IC50 (GST-MERTK 578-872) [nM]	IC50 (HIS-AXL 473-End) [nM]
CC(C)n1cc(C(=O)Nc2ccc(Oc3ccnc(Nc4ccnc(N5CCCC5)n4)c3)c(F)c2)c(=O)n(C23CC(C2)C3)c1=O [Example 104, 3-(Bicyclo[1.1.1]pentan-1-yl)-N-(3-fluoro-4-((2-((2-(pyrrolidin-1-yl)pyrimidin-4-yl)amino)pyridin-4-yl)oxy)phenyl)-1-isopropyl-2,4-dioxo-1,2,3,4-tetrahydropyrimidine-5-carboxamide]	3.9	3.1
CC(C)n1cc(C(=O)Nc2ccc(Oc3ccnc(Nc4ccnc(N5CCCC5)n4)c3)c(F)c2)c(=O)n(Cc2ccccc2)c1=O [Example 106]	8.2	8.2
CC(C)Cn1c(=O)c(C(=O)Nc2ccc(Oc3ccnc(Nc4ccnc(N5CCCC5)n4)c3)c(F)c2)cn(C(C)C)c1=O [Example 107]	5.4	11
CC(C)n1cc(C(=O)Nc2ccc(Oc3ccnc(Nc4ccnc(N5CCCC5)n4)c3)c(F)c2)c(=O)n(C(C)C)c1=O [Example 108]	9.1	3.8
CC(C)n1cc(C(=O)Nc2ccc(Oc3ccnc(Nc4ccnc(N5CCCC5)n4)c3)c(F)c2)c(=O)n(C2CCCCC2)c1=O [Example 109]	70	62
CS(=O)(=O)C1CCN(c2nccc(Nc3cc(Oc4ccc(NC(=O)c5cn(C6CC6)c(=O)n(-c6ccc(F)cc6)c5=O)cc4F)ccn3)n2)CC1 [Example 112, 1-cyclopropyl-N-{3-fluoro-4-[(2-{[2-(4-methanesulfonylpipedidin-1-yl)pyrimidin-4-yl]amino}pyridin-4-yl)oxy]phenyl}-3-(4-fluorophenyl)-2,4-dioxo-1,2,3,4-tetrahydropyrimidine-5-carboxamide]	4.1	0.8
CC(C)n1cc(C(=O)Nc2ccc(Oc3ccnc(Nc4ccnc(N5CCC(S(C)(=O)=O)CC5)n4)c3)c(F)c2)c(=O)n(C23CC(C2)C3)c1=O [Example 113]	2.8	4.8
CC(C)n1cc(C(=O)Nc2ccc(Oc3ccnc(Nc4ccnc(N5CCC(S(C)(=O)=O)CC5)n4)c3)c(F)c2)c(=O)n(-c2ccc(F)cc2)c1=O [Example 114]	1.4	0.6
Cc1cnc(Nc2ccnc(N3CCC(S(C)(=O)=O)CC3)n2)cc1Oc1ccc(NC(=O)c2cn(C(C)C)c(=O)n(-c3ccccc3)c2=O)cc1 [Example 115, N-{4-[(2-{[2-(4-methanesulfonylpiperidin-1-yl)pyrimidin-4-yl]amino}-5-methylpyridin-4-yl)oxy]phenyl}-2,4-dioxo-3-phenyl-1-(propan-2-yl)-1,2,3,4-tetrahydropyrimidine-5-carboxamide]	810	41
CC(C)n1cc(C(=O)Nc2ccc(Oc3ccnc(Nc4ccc(C#N)c(N5CCCC5)n4)c3)c(F)c2)c(=O)n(-c2ccc(F)cc2)c1=O [Example 117]	2.8	3
CC(C)n1cc(C(=O)Nc2ccc(Oc3ccnc(Nc4ccc(C#N)c(N5CCC(O)(C(F)(F)F)CC5)n4)c3)c(F)c2)c(=O)n(-c2ccc(F)cc2)c1=O [Example 122]	6	9.8
Cc1cc(Nc2cc(Oc3ccc(NC(=O)c4cn(C(C)C)c(=O)n(-c5ccc(F)cc5)c4=O)cc3F)ccn2)nc(N2CCN(S(C)(=O)=O)CC2)c1 [Example 136, N-{3-fluoro-4-[(2-{[6-(4-methanesulfonylpiperazin-1-yl)-4-methylpyridin-2-yl]amino}pyridin-4-yl)oxy]phenyl}-3-(4-fluorophenyl)-2,4-dioxo-1-(propan-2-yl)-1,2,3,4-tetrahydropyrimidine-5-carboxamide]	3.9	1040
CC(C)n1cc(C(=O)Nc2ccc(Oc3ccnc(Nc4ccc(C(F)(F)F)c(N5CCN(S(C)(=O)=O)CC5)n4)c3)c(F)c2)c(=O)n(-c2ccc(F)cc2)c1=O [Example 138, N-{3-fluoro-4-[(2-{[6-(4-methanesulfonylpiperazin-1-yl)-5-(trifluoromethyl)pyridin-2-yl]amino}pyridin-4-yl)oxy]phenyl}-3-(4-fluorophenyl)-2,4-dioxo-1-(propan-2-yl)-1,2,3,4-tetrahydropyrimidine-5-carboxamide]	20	23
COC(=O)N1CCN(c2nc(Nc3cc(Oc4ccc(NC(=O)c5cn(C(C)C)c(=O)n(-c6ccc(F)cc6)c5=O)cc4F)ccn3)ccc2C(F)(F)F)CC1 [Example 139]	11	77
CC(C)n1cc(C(=O)Nc2ccc(Oc3ccnc(Nc4ccc(C(F)(F)F)c(N5CCN(S(=O)(=O)N(C)C)CC5)n4)c3)c(F)c2)c(=O)n(-c2ccc(F)cc2)c1=O [Example 141]	17	14700

Results, then the compound that gave them:

IC50 (GST-MERTK 578-872) [nM]	IC50 (HIS-AXL 473-End) [nM]	Structure (SMILES)
1.4	2.3	O=C(Nc1ccc(Oc2ccnc(Nc3ccnc(N4CCCC4)n3)c2)c(F)c1)c1cn(C2CC2)c(=O)n(-c2ccc(F)cc2)c1=O [Example 105]
1	1.5	CC(C)n1cc(C(=O)Nc2ccc(Oc3ccnc(Nc4ccc(C#N)c(N5CCN(S(C)(=O)=O)CC5)n4)c3)c(F)c2)c(=O)n(-c2ccc(F)cc2)c1=O [Example 116, N-{4-[(2-{[5-cyano-6-(4-methanesulfonylpiperazin-1-yl)pyridin-2-yl]amino}pyridin-4-yl)oxy]-3-fluorophenyl}-3-(4-fluorophenyl)-2,4-dioxo-1-(propan-2-yl)-1,2,3,4-tetrahydropyrimidine-5-carboxamide]
1.5	1.4	CC(C)n1cc(C(=O)Nc2ccc(Oc3ccnc(Nc4ccc(C#N)c(N5CC[C@H](O)C5)n4)c3)c(F)c2)c(=O)n(-c2ccc(F)cc2)c1=O [Example 118]
1.5	4.2	COC(=O)N1CCN(c2nc(Nc3cc(Oc4ccc(NC(=O)c5cn(C(C)C)c(=O)n(-c6ccc(F)cc6)c5=O)cc4F)ccn3)ccc2C#N)CC1 [Example 119]
1.6	1.1	CC(C)n1cc(C(=O)Nc2ccc(Oc3ccnc(Nc4ccc(C#N)c(N5CCC(O)CC5)n4)c3)c(F)c2)c(=O)n(-c2ccc(F)cc2)c1=O [Example 120]
2.4	3.9	COC1CCN(c2nc(Nc3cc(Oc4ccc(NC(=O)c5cn(C(C)C)c(=O)n(-c6ccc(F)cc6)c5=O)cc4F)ccn3)ccc2C#N)CC1 [Example 121]
1.8	1.4	CC(C)n1cc(C(=O)Nc2ccc(Oc3ccnc(Nc4ccc(C#N)c(N5CCC(S(C)(=O)=O)CC5)n4)c3)c(F)c2)c(=O)n(-c2ccc(F)cc2)c1=O [Example 123]
2.9	2	CC(C)n1cc(C(=O)Nc2ccc(Oc3ccnc(Nc4ccc(C#N)c(N5CCC(S(C)(=O)=O)C5)n4)c3)c(F)c2)c(=O)n(-c2ccc(F)cc2)c1=O (stereo not shown) [Example 124]
2.2	1.3	CC(C)n1cc(C(=O)Nc2ccc(Oc3ccnc(Nc4ccc(C#N)c(N5CCN(S(C)(=O)=O)[C@H](C)C5)n4)c3)c(F)c2)c(=O)n(-c2ccc(F)cc2)c1=O [Example 125]
1	1.1	CC(C)n1cc(C(=O)Nc2ccc(Oc3ccnc(Nc4nc(N5CCN(S(C)(=O)=O)CC5)ccc4F)c3)c(F)c2)c(=O)n(-c2ccc(F)cc2)c1=O [Example 135, N-{3-fluoro-4-[(2-{[3-fluoro-6-(4-methanesulfonylpiperazin-1-yl)pyridin-2-yl]amino}pyridin-4-yl)oxy]phenyl}-3-(4-fluorophenyl)-2,4-dioxo-1-(propan-2-yl)-1,2,3,4-tetrahydropyrimidine-5-carboxamide]
3.6	3.4	Cc1cnc(Nc2cc(Oc3ccc(NC(=O)c4cn(C(C)C)c(=O)n(-c5ccc(F)cc5)c4=O)cc3F)ccn2)nc1N1CCN(S(C)(=O)=O)CC1 [Example 137, N-(3-fluoro-4-[(2-{[4-(4-methanesulfonylpiperazin-1-yl)-5-methylpyrimidin-2-yl]amino}pyridin-4-yl)oxy]phenyl)-3-(4-fluorophenyl)-2,4-dioxo-1-(propan-2-yl)-1,2,3,4-tetrahydropyrimidine-5-carboxamide]
